Laboratory results from US9532569B2 (INSTITUT NATIONAL DE LA RECHERCHE AGRONOMIQUE, priority 2012, dated 2017).

Tests used:
MRC5 cells = assay: In vitro cytotoxicity study on MRC5 cells (MTS); format: cell-based, human
Description: The cytotoxicity of the compound (IIa) according to the invention, and that of GR24 and of GR5 as comparative compounds, was evaluated in vitro, at concentrations of 10^−4 M and 10^−5 M, on MRC5 cells, in DMSO, in the following way.
MRC5 cells (human lung (fibroblasts) were cultured in Dulbecco's modified Eagle medium (DMEM) supplemented with: 25 mM of glucose, 10% (v/v) of fetal calf serum, 100 IU of penicillin, 100 μg/ml of streptomycin and 1.5 μg/ml of fungizone, and kept under 5% of CO2 at 37° C.
96-well plates were seeded with 2100 MRC5 cells per well in 200 μl of medium. After 24 hours, each of the compounds dissolved in DMSO was added for 72 hours, at a final concentration of 10^−4 M or 10^−5 M in a fixed volume of DMSO. The controls received an equal volume of DMSO.
The viable cell number was measured at 490 nm with the MTS reagent (Promega), and, for each compound, the concentration causing 50% inhibition of cell growth, IC50, was calculated.

pea rms1 mutants = assay: Hydroponic culture test in pea; format: in vivo, Pisum sativum L.; conditions: 1 μM in hydroponic culture solution, 8 days
Description: For this example, ramosus (rms1) hyperbranched pea (Pisum sativum L.) mutants were used.
More particularly, rms1 (rms1-10) hyperbranched mutant plants were used. The nutritive solution (100%) was prepared by adding the following macronutrients to 1000 l of water: HNO3 (0.28 l), (NH4)2HPO4 (120 g), Ca(NO3)2 (40 g), Mg(NO3)2 (140 g), KNO3 (550 g), (NH4)2MoO4 (0.05 g), H3BO3 (15 g), MnSO4.H2O (2 g), ZnSO4.7H2O (1 g), CuSO4.5H2O (0.25 g), Sequestrene® (10 g) (Fe-EDTA solution). The pea seeds were germinated in moist sand for 6 days, then placed in holes of a lid (35 holes/lid, 20 mm in diameter) of an opaque PVC pot containing the hydroponic culture solution (47 l, pH 5.8).
In a first experiment, acetone or the compound to be tested (dissolved in acetone) was added to the hydroponic culture solution so as to obtain a final concentration of 0 or 1 μM of compound to be tested and 0.01% of acetone.
The hydroponic culture solution was continually aerated by means of an aquarium pump and replaced each week. 8 days after the start of the treatment, the lengths of bud/branch (nodes 1 to 6) were measured with an electronic sliding caliper.
This experiment was carried out for the compounds according to the invention (IIa) and (IIIb), and also the GR24 compound as comparative compound. A negative control (<<CTL 0>>), corresponding to a treatment with the solvent alone, was also carried out.
The results (mean data on 20 plants), in terms of, on the one hand, length of the branches at nodes 3 to 5 and, on the other hand, plant height, are shown respectively in FIGS. 11 and 12.
The same experiment was carried out for the compound in accordance with the invention (II″g) and the comparative compound GR24. Dimethyl sulfoxide (DMSO) or the compound to be tested, dissolved in DMSO, was added to the hydroponic culture solution so as to obtain a final concentration of 0 or 3 μM of compound to be tested and 0.01% of DMSO.
The results (mean data on 10 to 12 plants), in terms, on the one hand, of length of the branches at nodes 3 to 4 and, on the other hand, of plant height, are shown respectively in FIGS. 13 and 14.

Striga hermonthica = assay: Germinative activity on parasitic plants; format: in vivo; conditions: counted after 4 days, 30° C.
Description: (§1) In this example, the germinative activity of the compounds in accordance with the invention (IIa) and (IIIb) and of the comparative compound GR24 was evaluated on the parasitic plants: Orobanche cumana, Orobanche minor, Striga hermonthica, Phelipanche ramosa (pv T and pv C).
(§2) The test protocol used was the following.
Seeds of Striga hermonthica (Del.) Benth were collected at Gadarif, Eastern Sudan, in 1999.
(§3) The seeds are stored dry in the dark at 25° C.
(§4) The compounds to be studied were resuspended in acetone at 10 mmol·l^−1, then diluted with water to 1 mmol·l^−1 (water/acetone; v/v; 99/1). Dilutions of 1×10^−3 mol·l^−1 to 1×10^−15 mol·l^−1 were then prepared in a water/acetone mixture (v/v; 99/1). Seeds of parasitic plants were surface-sterilized according to the protocol described in the publication by Vieira Dos Santos et al. (2003), then resuspended in sterile water (10 g·l^−1) and distributed on a 96-well plate (in a proportion of 50 μl, i.e. approximately 100 seeds per well). After preconditioning (7 days, 21° C., in the dark, plate hermetically sealed, except for the seeds of S. hermonthica, which were preconditioned at 30° C.), the compounds to be studied were added and the volumes adjusted to 100 μl with water (water/acetone; v/v; 999/1).
In a plate, a range of concentrations from 10^−13 mol·l^−1 to 10^−6 mol·l^−1 was applied for GR24 and (IIa) and from 10^−12 to 10^−5 mol·l^−1 for (IIIb). Controls were carried out with a water/acetone mixture (v/v; 999/1) and without seeds. The plates were incubated so as to allow germination (21° C., in the dark or 30° C. for Striga hermonthica.). After 4 days, the seeds which had germinated were counted under a stereomicroscope (SZX10, Olympus). […] For each compound tested, dose-response curves (g=f(c), where g is the germination percentage and c the concentration (mol·l^−1)), and the EC50 (median effective concentration) were modeled on the basis of a 4-parameter logistic curve calculated with SigmaPlot® 10.0.
(§5) The percentages of maximum germination induced by the compounds tested for each parasitic plant were determined.

Orobanche cumana = assay: Germinative activity on parasitic plants; format: in vivo; conditions: counted after 4 days
Description: as §1, §2
(§6) Seeds of Orobanche cumana Wallr. were collected from broomrapes parasitizing sunflower (Helianthus annuus L.), at Longeville-sur-mer, France, in 2009; seeds of clover broomrape (Orobanche minor Sm.) from a parasite of red clover (Trifolium pratense L.) were obtained from Professor K. Yoneyama (Utsunomiya University, Japan).
as §3, §4
(§7) In a plate, a range of concentrations from 10^−13 mol·l^−1 to 10^−6 mol·l^−1 was applied for GR24 and (IIa) and from 10^−12 to 10^−5 mol·l^−1 for (IIIb). Controls were carried out with a water/acetone mixture (v/v; 999/1) and without seeds. The plates were incubated so as to allow germination (21° C., in the dark or 30° C. for Striga hermonthica.). After 4 days, the seeds which had germinated were counted under a stereomicroscope (SZX10, Olympus). The seeds were considered to have germinated when the radicle was sticking out of the seed tegument. Each germination test was repeated at least 3 times. For each compound tested, dose-response curves (g=f(c), where g is the germination percentage and c the concentration (mol·l^−1)), and the EC50 (median effective concentration) were modeled on the basis of a 4-parameter logistic curve calculated with SigmaPlot® 10.0.
as §5

Orobanche minor = assay: Germinative activity on parasitic plants; format: in vivo; conditions: counted after 4 days
Description: as §1, §2, §6, §3, §4, §7, §5

## CC1=C(C)C(Sc2ccc(Cl)cc2)OC1=O (centres unmarked) [Compound (IIa), 5-((4-chlorophenyl)thio)-3,4-dimethylfuran-2(5H)-one]
MRC5 cells; Homo sapiens, MRC5, 10^−4M, 72 hours, ± standard error, read-out: Percentage inhibition of MRC5 cell growth
  inhibition at 100 µM: 11 ± 5%
MRC5 cells; Homo sapiens, MRC5, 10^−5M, 72 hours, ± standard error, read-out: Percentage inhibition of MRC5 cell growth
  inhibition at 10 µM: 7 ± 4%
MRC5 cells; concentration of 10^−4 M
  cytotoxicity compared with GR5 and GR24: cytotoxicity which is much lower than that of the comparative compounds GR5 and GR24
Pea rms1 mutants; FIG. 11
  length of the branches at nodes 3 to 5: activity of the compounds in accordance with the invention (IIa) and (IIIb) on all the branches of nodes 3 to 5
Pea rms1 mutants; FIG. 12
  plant height: significant effect on plant height is also demonstrated, comparable between the comparative compound GR24 and the compound in accordance with the invention (IIa)
Striga hermonthica
  Percentage of maximum germination induced: no (no significant germination compared to the negative control (<2%))
Orobanche cumana
  Percentage of maximum germination induced: no (no significant germination compared to the negative control (<2%))
Orobanche minor
  Percentage of maximum germination induced: no (no significant germination compared to the negative control (<2%))
